The source made the active and inactive calls. No cut-off for these calls is given here.
Tests used:
[1] = target: T1, Tryptophan 5-hydroxylase 1 (Homo sapiens, UniProt P17752); assay: Inhibition of TPH1
T1 sequence (P17752 whole entry): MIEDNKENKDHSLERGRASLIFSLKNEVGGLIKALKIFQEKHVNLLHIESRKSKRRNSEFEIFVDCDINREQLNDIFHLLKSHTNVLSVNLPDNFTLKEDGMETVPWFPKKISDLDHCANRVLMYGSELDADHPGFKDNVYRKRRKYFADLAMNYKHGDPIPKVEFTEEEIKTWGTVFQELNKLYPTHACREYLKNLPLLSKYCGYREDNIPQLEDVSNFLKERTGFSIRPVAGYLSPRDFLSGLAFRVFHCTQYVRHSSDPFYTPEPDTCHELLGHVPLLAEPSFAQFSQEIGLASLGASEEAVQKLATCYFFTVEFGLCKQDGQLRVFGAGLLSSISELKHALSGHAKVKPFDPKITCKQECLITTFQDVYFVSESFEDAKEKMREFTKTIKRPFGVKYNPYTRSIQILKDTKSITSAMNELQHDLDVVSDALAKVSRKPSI

[2] = target: T2, Tryptophan 5-hydroxylase 1 (Rattus norvegicus, UniProt P09810); assay: Inhibition of TPH1 in RBL cells assessed as inhibition of serotonin biosynthesis; type: cell-based
T2 sequence (P09810 whole entry): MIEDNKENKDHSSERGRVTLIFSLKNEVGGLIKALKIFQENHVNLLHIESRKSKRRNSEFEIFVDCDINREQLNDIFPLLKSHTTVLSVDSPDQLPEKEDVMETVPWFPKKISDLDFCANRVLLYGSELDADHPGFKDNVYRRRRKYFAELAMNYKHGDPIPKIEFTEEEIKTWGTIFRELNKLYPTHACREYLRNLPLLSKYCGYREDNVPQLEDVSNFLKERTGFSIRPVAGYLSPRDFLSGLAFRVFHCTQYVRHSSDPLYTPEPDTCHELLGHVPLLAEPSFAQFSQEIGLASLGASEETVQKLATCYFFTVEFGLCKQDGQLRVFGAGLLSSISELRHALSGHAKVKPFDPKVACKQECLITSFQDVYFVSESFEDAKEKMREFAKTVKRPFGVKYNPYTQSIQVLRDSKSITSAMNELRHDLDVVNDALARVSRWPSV

[3] = Volume of distribution at steady state in C57 albino mouse 1 mg/kg, iv; type: ADME, organism-based; set-up: dose 1 mg/kg, route intravenous; conditions: in vivo, read-out: Vdss
[4] = Half life in C57 albino mouse at 1 mg/kg, iv; type: ADME, organism-based; set-up: dose 1 mg/kg, route intravenous; conditions: in vivo
[5] = Tmax in C57 albino mouse at 10 mg/kg, po; type: ADME, organism-based; set-up: dose 10 mg/kg, route oral; conditions: in vivo
[6] = Cmax in C57 albino mouse at 10 mg/kg, po; type: ADME, organism-based; set-up: dose 10 mg/kg, route oral; conditions: in vivo
[7] = AUC (0 to 6 hrs) in C57 albino mouse at 1 mg/kg, iv; type: ADME, organism-based; set-up: time < 6 hr, dose 1 mg/kg, route intravenous; conditions: plasma
[8] = AUC (0 to 24 hrs) in C57 albino mouse at 10 mg/kg, po; type: ADME, organism-based; set-up: time < 24 hr, dose 10 mg/kg, route oral; conditions: plasma
[9] = AUC (0 to infinity) in C57 albino mouse at 1 mg/kg, iv; type: ADME, organism-based; set-up: time infinity, dose 1 mg/kg, route intravenous; conditions: plasma
[10] = Oral bioavailability in C57 albino mouse at 10 mg/kg; type: ADME, organism-based; conditions: in vivo
[11] = Drug level in C57 albino mouse brain at 10 mg/kg, po after 2 hrs; type: ADME, organism-based; set-up: dose 10 mg/kg, route oral; conditions: read-out: Drug uptake
[12] = Drug level in C57 albino mouse brain at 10 mg/kg, po after 6 hrs; type: ADME, organism-based; set-up: dose 10 mg/kg, route oral; conditions: read-out: Drug uptake
[13] = Drug level in C57 albino mouse brain after 24 hrs; type: ADME, tissue-based; conditions: read-out: Drug uptake
Mus musculus [14] = assay: Reduction of 5HT level in mouse intestine at 30 mg/kg, po twice a day; type: functional; set-up: scale not given: the % may be the effect or the level left
Mus musculus [15] = assay: Reduction of 5HT level in mouse intestine at 90 mg/kg, po twice a day; type: functional; set-up: scale not given: the % may be the effect or the level left
Mus musculus [16] = assay: Reduction of 5HT level in mouse colon at 30 mg/kg, po twice a day; type: functional; set-up: scale not given: the % may be the effect or the level left
Mus musculus [17] = assay: Reduction of 5HT level in mouse colon at 90 mg/kg, po twice a day; type: functional; set-up: scale not given: the % may be the effect or the level left
[18] = Ratio of drug level in brain to plasma in C57 albino mouse at 10 mg/kg, po after 2 hrs; type: ADME, organism-based; set-up: dose 10 mg/kg, route oral; conditions: read-out: BPR
[19] = Ratio of drug level in brain to plasma in C57 albino mouse at 10 mg/kg, po after 6 hrs; type: ADME, organism-based; set-up: dose 10 mg/kg, route oral; conditions: read-out: BPR
[20] = Half life in C57 albino mouse at 10 mg/kg, po; type: ADME, organism-based; set-up: dose 10 mg/kg, route oral; conditions: in vivo
[21] = AUC (0 to infinity) in C57 albino mouse at 10 mg/kg, po; type: ADME, organism-based; set-up: time infinity, dose 10 mg/kg, route oral; conditions: plasma
[22] = Clearance in C57 albino mouse plasma at 1 mg/kg, iv; type: ADME, organism-based; set-up: dose 1 mg/kg, route intravenous
Mus musculus [23] = assay: Reduction of 5HT level in mouse intestine at 45 mg/kg, po twice a day after 3 days; type: functional, organism-based; set-up: dose 45 mg/kg
Mus musculus [24] = assay: Reduction of 5HT level in mouse intestine at 90 mg/kg, po twice a day after 3 days; type: functional, organism-based; set-up: dose 90 mg/kg
Mus musculus [25] = assay: Reduction of 5HT level in mouse brain at 45 mg/kg, po twice a day after 3 days; type: functional, organism-based; set-up: dose 45 mg/kg
Mus musculus [26] = assay: Reduction of 5HT level in mouse brain at 90 mg/kg, po twice a day after 3 days; type: functional, organism-based; set-up: dose 90 mg/kg

**Q.** What does the source list for `C[C@@H](Nc1cc(-c2ccc(C[C@H](N)C(=O)O)cc2)nc(N)n1)c1ccc2ccccc2c1`?
**A.** IC50 [1]: 32 nM; EC50 [2]: 1700 nM

**Q.** Which IC50 [1] does the source give for `Nc1nc(OC(c2ccccc2-n2ccc(C(F)(F)F)n2)C(F)(F)F)cc(-c2ccc(C[C@H](N)C(=O)O)cc2)n1` (stereo partly specified) here?
**A.** 29 nM

**Q.** What about the EC50 [2] of the same molecule?
**A.** 70 nM

**Q.** Which IC50 [1] does the source give for `N[C@@H](Cc1ccc(-c2cnc(NCc3ccccn3)cn2)cc1)C(=O)O` here?
**A.** 6150 nM

**Q.** With `Nc1nc(OC(c2ccc(-c3cccc(F)c3)cc2)C(F)(F)F)cc(-c2ccc(C[C@H](N)C(=O)O)cc2)n1` (stereo partly specified) as the molecule, how does the Vd [3] read?
**A.** 0.73 L/kg

**Q.** And the half-life [4]?
**A.** 3.26 h

**Q.** What about the Tmax [5] of the same molecule?
**A.** 3.25 h

**Q.** What about the Cmax [6] of the same molecule?
**A.** 641 nM

**Q.** And the AUC(0-t) at 6 h [7]?
**A.** 6.2 µM·h

**Q.** And the AUC(0-t) at 24 h [8]?
**A.** 6.09 µM·h

**Q.** And the AUC(0-inf) [9]?
**A.** 8.54 µM·h

**Q.** And the bioavailability [10]?
**A.** 7.6%

**Q.** What about the concentration at 2 h [11] of the same molecule?
**A.** 6.05 nM

**Q.** And the concentration at 6 h [12]?
**A.** 6.15 nM

**Q.** What about the concentration at 24 h [13] of the same molecule?
**A.** 0.38 nM

**Q.** What about the Activity (Mus musculus [14]) of the same molecule?
**A.** 55%

**Q.** What about the Activity (Mus musculus [15]) of the same molecule?
**A.** 70%

**Q.** What about the Activity (Mus musculus [16]) of the same molecule?
**A.** 24%

**Q.** What about the Activity (Mus musculus [17]) of the same molecule?
**A.** 36%

**Q.** What about the Kp at 2 h [18] of the same molecule?
**A.** 0.01

**Q.** And the Kp at 6 h [19]?
**A.** 0.01

**Q.** And the half-life [20]?
**A.** 5.98 h

**Q.** What about the AUC(0-inf) [21] of the same molecule?
**A.** 6.5 µM·h

**Q.** What about the clearance [22] of the same molecule?
**A.** 3.33 mL/min/kg

**Q.** With `C[C@@H](Nc1nc(N)nc(-c2ccc(CC(N)C(=O)O)nc2)n1)c1ccc2ccccc2c1` (stereo partly specified) as the molecule, how does the IC50 [1] read?
**A.** 890 nM

**Q.** With `N[C@@H](Cc1ccc(-c2cnc(NCC3CCc4ccccc4C3)cn2)cc1)C(=O)O` (stereo partly specified) as the molecule, how does the IC50 [1] read?
**A.** 46 nM

**Q.** Which results are given for `Nc1nc(OC(c2ccccc2-c2ccco2)C(F)(F)F)cc(-c2ccc(C[C@H](N)C(=O)O)cc2)n1` (stereo partly specified)?
**A.** IC50 [1]: 24 nM; EC50 [2]: 48 nM

**Q.** With `CCn1c2ccccc2c2cc(CNc3ccc(-c4ccc(C[C@H](N)C(=O)O)cc4)nc3)ccc21` as the molecule, how does the IC50 [1] read?
**A.** > 10000 nM

**Q.** For `CCn1c2ccccc2c2cc(CNc3cnc(-c4ccc(C[C@H](N)C(=O)O)cc4)cn3)ccc21`, which IC50 [1] is on record?
**A.** 31 nM

**Q.** With `COc1ccc(CNc2ccc(-c3ccc(C[C@H](N)C(=O)O)cc3)cc2)cc1OC1CCCC1` as the molecule, how does the IC50 [1] read?
**A.** > 10000 nM

**Q.** For `N[C@@H](Cc1ccc(-c2cnc(NCc3ccc4ccccc4c3)cn2)cc1)C(=O)O`, which IC50 [1] is on record?
**A.** 13 nM

**Q.** With `N[C@@H](Cc1ccc(-c2cnc(NCC3CCCCC3)cn2)cc1)C(=O)O` as the molecule, how does the IC50 [1] read?
**A.** 240 nM

**Q.** For `COc1ccc(CNc2ccc(-c3ccc(C[C@H](N)C(=O)O)cc3)nn2)cc1OC1CCCC1`, which IC50 [1] is on record?
**A.** 970 nM

**Q.** For `Nc1nc(NCc2ccc3ccccc3c2)nc(-c2ccc(C[C@H](N)C(=O)O)cc2)n1`, which IC50 [1] is on record?
**A.** 24 nM

**Q.** For `CCOC(=O)[C@@H](N)Cc1ccc(-c2cc(OC(c3ccc(-c4cccc(F)c4)cc3)C(F)(F)F)nc(N)n2)cc1` (stereo partly specified), which Activity (Mus musculus [23]) is on record?
**A.** Active

**Q.** And the Activity (Mus musculus [24])?
**A.** Active

**Q.** What about the Activity (Mus musculus [25]) of the same molecule?
**A.** inactive

**Q.** And the Activity (Mus musculus [26])?
**A.** Active

**Q.** Which IC50 [1] does the source give for `C[C@@H](Nc1nc(N)nc(-c2cccc(CC(N)C(=O)O)c2)n1)c1ccc2ccccc2c1` (stereo partly specified) here?
**A.** > 11000 nM
